Molecules are shown by their SMILES.

The test system of assay [1] is human telomeric DNA (22mer) (DNA, G4) AGGGTTAGGGTTAGGGTTAGGG
Kind of assay: ITC. The settings on record: Na+ 100 mM; 10 mM cacodylate, 0.5 mM EDTA, pH 6.8; one-site model.

Assay [2] concerns Oxytricha Nova quadruplex (DNA, G4) GGGGTTTTGGGG
Kind of assay: ITC. The settings on record: Na+ 100 mM; 10 mM cacodylate, 0.5 mM EDTA, pH 6.8.

For the compound `NC[C@@H]1O[C@H](O[C@H]2[C@@H](O)[C@H](O[C@@H]3[C@@H](O)[C@H](N)C[C@H](N)[C@H]3O[C@H]3O[C@H](CN)[C@@H](O)[C@H](O)[C@H]3N)O[C@@H]2CO)[C@H](N)[C@@H](O)[C@@H]1O`, the Ka result in assay [1] was “(2.5±0.2)×10^4 M^−1”; in assay [2], “(1.8±0.3)×10^5 M^−1”.

The record behind these values is paper PMC3673541 (2011).
